Substitutions are numbered along the chain they refer to. Entries after “also recorded” stand apart in the source; their conditions may differ. Where two headings read alike, the source gives them in different places.
How the values were obtained:
CCK2R [1] = target: T1, CCK2R (Homo sapiens, UniProt P32239); test: Intracellular calcium response in CHO-CCK2R cells; format: cell-based
T1 sequence (P32239 1-447): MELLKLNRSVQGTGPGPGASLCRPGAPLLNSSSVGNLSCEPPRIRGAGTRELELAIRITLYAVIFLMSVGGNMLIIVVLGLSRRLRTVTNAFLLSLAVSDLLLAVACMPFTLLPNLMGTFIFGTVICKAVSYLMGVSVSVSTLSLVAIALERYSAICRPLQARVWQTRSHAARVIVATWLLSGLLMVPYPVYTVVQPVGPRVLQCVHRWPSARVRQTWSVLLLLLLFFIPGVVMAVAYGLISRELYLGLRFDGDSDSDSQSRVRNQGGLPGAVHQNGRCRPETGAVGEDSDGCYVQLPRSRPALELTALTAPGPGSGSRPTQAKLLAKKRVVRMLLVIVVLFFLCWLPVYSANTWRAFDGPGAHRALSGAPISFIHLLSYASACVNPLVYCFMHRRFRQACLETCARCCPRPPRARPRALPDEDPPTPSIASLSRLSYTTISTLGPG

CCK1R [2] = target: T2, CCK1R (Homo sapiens, UniProt P32238); format: cell-based
T2 sequence (P32238 1-428): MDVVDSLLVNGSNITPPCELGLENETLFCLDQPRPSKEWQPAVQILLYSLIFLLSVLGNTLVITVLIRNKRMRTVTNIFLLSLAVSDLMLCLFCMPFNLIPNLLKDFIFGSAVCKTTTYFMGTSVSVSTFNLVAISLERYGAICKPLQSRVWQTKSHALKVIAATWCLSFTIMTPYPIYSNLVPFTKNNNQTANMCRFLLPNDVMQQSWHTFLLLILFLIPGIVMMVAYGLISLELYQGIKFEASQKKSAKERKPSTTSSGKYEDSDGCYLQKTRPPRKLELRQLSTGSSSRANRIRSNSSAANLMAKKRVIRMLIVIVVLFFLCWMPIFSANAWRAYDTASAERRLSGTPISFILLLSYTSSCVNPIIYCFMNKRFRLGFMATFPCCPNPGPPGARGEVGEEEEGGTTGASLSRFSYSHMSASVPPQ

CCK1R [3] = target: T2, CCK1R; test: Competition binding of orthosteric radioligand 125I-CCK, CHO cell membranes
CCK1R [4] = target: T2, CCK1R; test: Intracellular calcium response in CHO-CCK1R cells; format: cell-based; details: % of the ATP (0.1mM) positive control
CCK2R TM2 (T2.61N) [5] = target: T3, CCK2R TM2 (T2.61N) (Homo sapiens, UniProt P32239, T111N); test: 125I-BDZ-2 competition binding, chimeric construct; details: NDB = no detectable binding
T3 sequence (P32239 1-447 T111N): T1 sequence (P32239 1-447) with T111N

CCK2R TM2 (T2.61N) [6] = target: T3, CCK2R TM2 (T2.61N); test: 125I-CCK competition binding, chimeric construct
[7] = target: T4, CCK2R TM3 (V3.28T, S3.29T) (Homo sapiens, UniProt P32239, S131T/V130T); test: 125I-CCK competition binding, chimeric construct
T4 sequence (P32239 1-447 V130T/S131T): T1 sequence (P32239 1-447) with V130T, S131T

[8] = target: T5, CCK2R TM6 (V6.51I, Y6.52F) (Homo sapiens, UniProt P32239, V349I/Y350F); test: 125I-BDZ-2 competition binding, chimeric construct
T5 sequence (P32239 1-447 V349I/Y350F): T1 sequence (P32239 1-447) with V349I, Y350F

[9] = target: T5, CCK2R TM6 (V6.51I, Y6.52F); test: 125I-CCK competition binding, chimeric construct
[10] = test system: CCK2R TM chimeric constructs; test: 125I-BDZ-2 competition binding, CCK2R-based chimeras as a group
CCK2R [11] = target: T1, CCK2R; test: Competition binding of orthosteric radioligand 125I-CCK, CHO cell membranes; details: 125I-CCK radioligand

Row | SMILES | Intracellular calcium response at CCK2R-expressing cells (CCK2R [1]) | Decrease in efficacy of the CCK response (CCK1R [2]; 1µM compound) [%] | Allosteric modulatory (PAM) activity on CCK dose-response curve (CCK1R [2]; increasing concentrations of compound) | IC50 (CCK1R [3]) [µM] | Intrinsic agonist response (CCK1R [4]; 100nM compound) [%] | Intrinsic agonist response (CCK1R [4]; 1µM compound) [%] | Shift to the right in the CCK dose-response curve (CCK1R [2]; 100nM compound) [fold] | Shift to the right in the CCK dose-response curve (CCK1R [2]; 1µM compound) [fold] | IC50, 125I-BDZ-2 (CCK2R TM2 (T2.61N) [5]) | IC50 (CCK2R TM2 (T2.61N) [6]) [µM] | Right shift (poorer affinity) vs wild type CCK2R (CCK2R TM2 (T2.61N) [6]; 125I-CCK, CCK2R TM2 substitution) [fold] | IC50 [7] [µM] | IC50 [8] [µM] | IC50 [9] [µM] | Change in binding affinity at chimeras vs wild type CCK2R [10] | Fold lower IC50 at CCK2R than at CCK1R (CCK2R [11])
1 | O=C(CN1C(=O)C(NC(=O)Nc2ccccc2)C(=O)N(c2ccccc2)c2ccccc21)Nc1ccccc1 (stereo not drawn) | stimulated no intracellular calcium responses | 11 |  |  |  |  |  |  |  |  |  |  |  |  |  | 
2 | CC(C)N(C(=O)CN1C(=O)[C@H](NC(=O)Nc2cccc(C(=O)O)c2)C(=O)N(c2ccccc2)c2ccccc21)c1ccccc1 [GI181771X, reference compound] |  |  | did not yield a significant left-shift or an increase in efficacy; also recorded: no PAM activity |  |  |  |  |  |  |  |  |  |  |  |  | 
3 | COc1ccc(N(C)C(=O)CN2C(=O)C(NC(=O)Nc3ccccc3)C(=O)N(c3ccccc3)c3ccccc32)cc1 (stereo not drawn) [GR135470X] | stimulated no intracellular calcium responses | 14 |  | 0.45 ± 0.104 | 43 | 48 | 3.6 | 8.5 | NDB | 0.519 ± 0.138 | 10 | 0.0101 ± 0.0016 | 0.036 ± 0.0055 | 0.165 ± 0.038 | none of the chimeras tested exhibited a change in binding affinities | ~ 9 fold
